Source: US12195490B2, “STRAD-binding agents and uses thereof” (The Regents of the University of California, priority 2020, dated 2025)

biological target: T1, LKB1 (Homo sapiens, UniProt Q15831+Q7RTN6); assay: in vitro LKB1 functional activity; assay type: biochemical; conditions: APA analogs
T1 sequence (Q15831 1-433): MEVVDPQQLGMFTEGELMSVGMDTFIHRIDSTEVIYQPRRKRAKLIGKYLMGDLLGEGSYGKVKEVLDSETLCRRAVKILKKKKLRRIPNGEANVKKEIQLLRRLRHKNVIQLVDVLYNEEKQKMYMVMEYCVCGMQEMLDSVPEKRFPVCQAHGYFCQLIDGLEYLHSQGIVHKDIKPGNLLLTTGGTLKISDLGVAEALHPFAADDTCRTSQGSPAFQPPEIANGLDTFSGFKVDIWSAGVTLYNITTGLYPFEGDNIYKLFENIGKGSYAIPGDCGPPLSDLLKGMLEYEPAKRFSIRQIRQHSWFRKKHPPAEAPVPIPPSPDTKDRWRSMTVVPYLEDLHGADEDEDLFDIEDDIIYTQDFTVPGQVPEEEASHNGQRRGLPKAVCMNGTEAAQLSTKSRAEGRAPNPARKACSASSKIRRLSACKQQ
T1 sequence (Q7RTN6 1-431): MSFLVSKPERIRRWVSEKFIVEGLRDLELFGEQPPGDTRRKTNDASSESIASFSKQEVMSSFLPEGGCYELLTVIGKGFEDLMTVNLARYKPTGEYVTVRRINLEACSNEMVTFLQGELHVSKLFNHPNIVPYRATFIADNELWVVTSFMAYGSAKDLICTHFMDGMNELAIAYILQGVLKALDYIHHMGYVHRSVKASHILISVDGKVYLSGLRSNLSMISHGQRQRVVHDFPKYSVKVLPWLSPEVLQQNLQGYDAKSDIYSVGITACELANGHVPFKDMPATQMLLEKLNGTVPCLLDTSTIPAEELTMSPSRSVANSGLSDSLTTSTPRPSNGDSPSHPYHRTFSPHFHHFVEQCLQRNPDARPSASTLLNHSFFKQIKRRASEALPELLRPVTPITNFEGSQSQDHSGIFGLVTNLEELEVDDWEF
T1 sequence (Q9Y376 1-341 partner): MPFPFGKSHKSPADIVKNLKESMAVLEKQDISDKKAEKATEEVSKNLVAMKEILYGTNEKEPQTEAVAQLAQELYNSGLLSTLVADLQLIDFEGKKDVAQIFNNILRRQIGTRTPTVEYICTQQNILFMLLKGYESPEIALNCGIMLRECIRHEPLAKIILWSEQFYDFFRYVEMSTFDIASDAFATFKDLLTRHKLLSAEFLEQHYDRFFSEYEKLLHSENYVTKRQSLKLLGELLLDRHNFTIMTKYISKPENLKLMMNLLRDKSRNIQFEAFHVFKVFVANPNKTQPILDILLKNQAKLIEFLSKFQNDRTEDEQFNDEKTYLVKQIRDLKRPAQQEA

Row | SMILES | LKB1 % Act. Increase
1 | CC(=O)NS(=O)(=O)c1ccc(NC(=O)c2nc(-c3cnc(C)nc3)cnc2N)cc1 [SU20668-0369, N-(4-(N-acetylsulfamoyl)phenyl)-3-amino-6-(2-methylpyrimidin-5-yl)pyrazine-2-carboxamide] | C (C=199-1000%)
2 | Cc1ccc(-c2cnc(N)c(C(=O)Nc3ccc(S(=O)(=O)CC4CCO4)cc3)n2)cc1 (stereo not shown) [SU20668-0500, 3-amino-N-(4-(oxetan-2-ylmethylsulfonyl)phenyl)-6-p-tolylpyrazine-2-carboxamide] | B (B=399-2000%)
3 | CC(=O)Nc1ccc(-c2cnc(N)c(C(=O)Nc3ccc(S(=O)(=O)NC(C)=O)cc3)n2)cc1 [SU20668-0346, 6-(4-acetamidophenyl)-N-(4-(N-acetylsulfamoyl)phenyl)-3-aminopyrazine-2-carboxamide] | C (C=199-1000%)
4 | CC(=O)NS(=O)(=O)c1ccc(NC(=O)c2nc(-c3cccc(C(N)=O)c3)cnc2N)cc1 [SU20668-0341, N-(4-(N-acetylsulfamoyl)phenyl)-3-amino-6-(3-carbamoylphenyl)pyrazine-2-carboxamide] | D (D=<1000%)
5 | COc1cc(F)c(-c2cnc(N)c(C(=O)Nc3ccc(S(=O)(=O)NC(C)=O)cc3)n2)c(F)c1 [SU20668-0375, N-(4-(N-acetylsulfamoyl)phenyl)-3-amino-6-(2,6-difluoro-4-methoxyphenyl)pyrazine-2-carboxamide] | D (D=<1000%)
6 | COC(=O)c1ccc(NC(=O)c2nc(-c3ccc(C)cc3)cnc2N)cc1F [SU20668-0307, methyl 4-(3-amino-6-p-tolylpyrazine-2-carboxamido)-2-fluorobenzoate] | D (D=<1000%)
7 | CCOP(=O)(OCC)C(C)S(=O)(=O)c1ccc(NC(=O)c2nc(-c3ccc(C)cc3)cnc2N)cc1 (stereo not shown) [SU20668-0505, diethyl 1-(4-(3-amino-6-p-tolylpyrazine-2-carboxamido)phenylsulfonyl)ethylphosphonate] | A (A=>4000%)
8 | CCOC(=O)CS(=O)(=O)c1ccc(NC(=O)c2nc(-c3ccc(C)cc3)cnc2N)cc1 [SU20668-0311, ethyl 2-(4-(3-amino-6-p-tolylpyrazine-2-carboxamido)phenylsulfonyl)acetate] | C (C=199-1000%)
9 | Cc1ccc(-c2cnc(N)c(C(=O)Nc3ccc(C(=O)O)c(F)c3)n2)cc1 [SU20668-0299, 4-(3-amino-6-p-tolylpyrazine-2-carboxamido)-2-fluorobenzoic acid] | D (D=<1000%)
10 | CNS(=O)(=O)c1ccc(NC(=O)c2nc(-c3ccc(C)cc3)cnc2N)cc1 [SU20668-0286, 3-amino-N-(4-(N-methylsulfamoyl)phenyl)-6-p-tolylpyrazine-2-carboxamide] | C (C=199-1000%)
11 | CC(=O)NS(=O)(=O)c1ccc(NC(=O)c2nc(-c3cc[nH]n3)cnc2N)cc1 [SU20668-0352, N-(4-(N-acetylsulfamoyl)phenyl)-3-amino-6-(1H-pyrazol-3-yl)pyrazine-2-carboxamide] | C (C=199-1000%)
12 | CC(=O)NS(=O)(=O)c1ccc(NC(=O)c2nc(-c3ccc(CN(C)C)cc3)cnc2N)cc1 [SU20668-0339, N-(4-(N-acetylsulfamoyl)phenyl)-3-amino-6-(4-((dimethylamino)methyl)phenyl)pyrazine-2-carboxamide] | C (C=199-1000%)
13 | Cc1ccc(-c2cnc(N)c(C(=O)Nc3ccc(S(=O)(=O)Nc4cc(C)on4)cc3)n2)cc1 [SU20668-0467, 3-amino-N-(4-(N-(5-methylisoxazol-3-yl)sulfamoyl)phenyl)-6-p-tolylpyrazine-2-carboxamide] | C (C=199-1000%)
14 | Cc1ccc(-c2cnc(N)c(C(=O)Nc3ccc(S(=O)(=O)CP(C)(C)=O)cc3)n2)cc1 [SU20668-0492, 3-amino-N-[4-(dimethylphosphorylmethylsulfonyl)phenyl]-6-(p-tolyl)pyrazine-2-carboxamide] | B (B=399-2000%)
15 | Cc1ccc(-c2cnc(N)c(C(=O)Nc3ccc(S(C)(=O)=O)cc3)n2)cc1 [SU20668-0293, 3-amino-N-(4-(methylsulfonyl)phenyl)-6-p-tolylpyrazine-2-carboxamide] | C (C=199-1000%)
16 | CCNP(=O)(CS(=O)(=O)c1ccc(NC(=O)c2nc(-c3ccc(C)cc3)cnc2N)cc1)OCC (stereo not shown) [SU20668-0480, ethyl P-(4-(3-amino-6-p-tolylpyrazine-2-carboxamido)phenylsulfonyl)methyl-N-ethylphosphonamidate] | D (D=<1000%)

Row | SMILES | LKB1 % Act. Increase
17 | CCC(=O)NS(=O)(=O)c1ccc(NC(=O)c2nc(-c3ccc(C)cc3)cnc2N)cc1 [SU20668-0325, 3-amino-N-(4-(N-propionylsulfamoyl)phenyl)-6-p-tolylpyrazine-2-carboxamide] | C (C=199-1000%)
18 | CC(=O)NS(=O)(=O)c1ccc(NC(=O)c2nc(-c3ccc(C4CCCN4)cc3)cnc2N)cc1 (stereo not shown) [SU20668-0340, N-(4-(N-acetylsulfamoyl)phenyl)-3-amino-6-(4-(pyrrolidin-2-yl)phenyl)pyrazine-2-carboxamide] | D (D=<1000%)
19 | CCOP(=O)(CS(=O)(=O)c1ccc(NC(=O)c2nc(-c3ccc(C)cc3)cnc2N)cc1F)OCC [SU20668-0482, diethyl (4-(3-amino-6-p-tolylpyrazine-2-carboxamido)-2-fluorophenylsulfonyl)methylphosphonate] | D (D=<1000%)
20 | CC(=O)NS(=O)(=O)c1ccc(NC(=O)c2nc(-c3ccc(Cl)cc3)cnc2N)cc1 [SU20668-0391, N-(4-(N-acetylsulfamoyl)phenyl)-3-amino-6-(4-chlorophenyl)pyrazine-2-carboxamide] | D (D=<1000%)
21 | Cc1ccc(-c2cnc(N)c(C(=O)Nc3ccc(S(=O)(=O)NC4(C)COC4)cc3)n2)cc1 [SU20668-0510, 3-amino-N-(4-(N-(3-methyloxetan-3-yl)sulfamoyl)phenyl)-6-p-tolylpyrazine-2-carboxamide] | B (B=399-2000%)
22 | Cc1ccc(-c2cnc(N)c(C(=O)Nc3ccc4c(c3)CNS4(=O)=O)n2)cc1 [SU20668-0288] | D (D=<1000%)
23 | CC(=O)NS(=O)(=O)c1ccc(NC(=O)c2nc(-c3cnc(N)nc3)cnc2N)cc1 [SU20668-0372, N-(4-(N-acetylsulfamoyl)phenyl)-3-amino-6-(2-aminopyrimidin-5-yl)pyrazine-2-carboxamide] | D (D=<1000%)
24 | Cc1ccc(-c2cnc(N)c(C(=O)Nc3ccc([S@SP3](=O)(=O)CP(=O)(O)O)cc3)n2)cc1 [SU20668-0312, (((4-(3-amino-6-(p-tolyl)pyrazine-2-carboxamido)phenyl)sulfonyl)methyl)phosphonic acid] | C (C=199-1000%)
25 | Cc1ccc(-c2cnc(N)c(C(=O)Nc3ccc(C(=O)OC(C)(C)C)c(F)c3)n2)cc1 [SU20668-0308, tert-butyl 4-(3-amino-6-p-tolylpyrazine-2-carboxamido)-2-fluorobenzoate] | C (C=199-1000%)
26 | Cc1ccc(-c2cnc(N)c(C(=O)Nc3ccc(CC(=O)O)cc3)n2)cc1 [SU20668-0330, 2-(4-(3-amino-6-p-tolylpyrazine-2-carboxamido)phenyl)acetic acid] | C (C=199-1000%)
27 | CCP(=O)(CS(=O)(=O)c1ccc(NC(=O)c2nc(-c3ccc(C)cc3)cnc2N)cc1)OC (stereo not shown) [SU20668-0514, methyl (4-(3-amino-6-p-tolylpyrazine-2-carboxamido)phenylsulfonyl)methyl(ethyl)phosphinate] | B (B=399-2000%)
28 | CC(=O)NS(=O)(=O)c1ccc(NC(=O)c2nc(-c3ccc(N4CCN(C)CC4)cc3)cnc2N)cc1 [SU20668-0347, N-(4-(N-acetylsulfamoyl)phenyl)-3-amino-6-(4-(4-methylpiperazin-1-yl)phenyl)pyrazine-2-carboxamide] | C (C=199-1000%)
29 | CC(=O)NS(=O)(=O)c1ccc(NC(=O)c2nc(-c3csc4ccccc34)cnc2N)cc1 [SU20668-0376, N-(4-(N-acetylsulfamoyl)phenyl)-3-amino-6-(benzo[b]thiophen-3-yl)pyrazine-2-carboxamide] | C (C=199-1000%)
30 | Cc1ccc(-c2cnc(N)c(C(=O)Nc3ccc(NS(C)(=O)=O)cc3)n2)cc1 [SU20668-0281] | D (D=<1000%)
31 | CC(=O)NS(=O)(=O)c1ccc(NC(=O)c2nc(-c3ccc(C)cc3)cnc2N)cc1F [SU20668-0483] | D (D=<1000%)
